Source: patent US9694018B1, “IBAT inhibitors for the treatment of liver disease” (Albireo AB, priority 2010, dated 2017)

Test system: Mdr2−/− mice
Assay: In vivo animal model of primary sclerosing cholangitis (Mdr2-/- mice)
Details: daily oral gavage for 2-4 weeks, vs vehicle
Description: A genetic mice with targeted disruption of the Multidrug resistant Mdr2 (Abcb4) gene encoding a canalicular phospholipid flippase (Mdr2−/− mice) spontaneously develop sclerosing cholangitis with macroscopic and microscopic features of human Primary sclerosing cholangitis. Bile duct injury in these mice is linked to defective biliary phospholipid secretion resulting in an increased concentration of free non-micellar bile acids which subsequently cause bile duct epithelial cell (cholangiocyte) injury, pericholangitis, periductal fibrosis with ductular proliferation and finally sclerosing cholangitis. […] In analogy to the Mdr2−/− mouse model of sclerosing cholangitis, Multidrug resistant protein MDR3/ABCB4 (the human orthologue of rodent Mdr2/Abcb4) defects play a role in the pathogenesis of various cholangiopathies in humans. MDR3 variants play a role as a modifier gene in the pathogenesis of various cholangiopathies such as PSC, Primary Biliary cirrhosis (PBC) and adulthood idiopathic ductopenia/billary fibrosis.
Mdr2−/− mice were given daily oral doses of the compound of Example 14 by gavage for 2-4 weeks and controls were dosed the vehicle in the same way. Serum liver tests, liver histology and fibrosis were investigated. The compound of Example 14 improves liver tests, liver histology and fibrosis.

Question: With CCCCC1(CCCC)CN(c2ccccc2)c2cc(SC)c(OCC(=O)N[C@@H](C(=O)NCC(=O)O)c3ccccc3)cc2S(=O)(=O)C1 [Example 14, 1,1-Dioxo-3,3-dibutyl-5-phenyl-7-methylthio-8-(N—{(R)-1′-phenyl-1′-[N′-(carboxymethyl)carbamoyl]methyl}carbamoylmethoxy)-2,3,4,5-tetrahydro-1,5-benzothiazepine] as the compound, how does the Serum liver tests read?
Answer: improves
